Assay results taken from patent US20240166624A1, “PPARG INVERSE AGONISTS AND USES THEREOF” (Flare Therapeutics Inc., priority 2021, published 2024).

Experiments:
[1] = system: ANGPTL4, a PPARG target gene, in HT1197 (RXRA S427F mutation) cells; assay: Bladder cancer pharmacodynamic assay, HT1197 cell assay (qPCR of ANGPTL4); assay type: cell-based; settings: Homo sapiens, 24 hours, 100 nM compound, relative to DMSO control
Method in brief: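 5637 (PPARG amplified) and HT1197 (RXRA S427F) cells treated 24 h with PPARG inverse agonists. FABP4 and ANGPTL4 expression measured by qPCR, normalised to TBP, and reported relative to DMSO control by ΔΔCt.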

[2] = biological target: T1, PPARG/RXRA LBD heterodimer (Homo sapiens, UniProt P37231); assay: PPARγ-MED1 blockade assay (TR-FRET, biotinylated MED1 LxxLL peptide); assay type: biochemical; settings: WT PPARG LBD/WT RXRA LBD, 80 nM Rosiglitazone, 3 hours
T1 construct: His-TEV-Q203-Y477; Uniprot ID P37231-2; made in house; host or cells: E. coli
T1 sequence (P37231 203-477 isoform P37231-2): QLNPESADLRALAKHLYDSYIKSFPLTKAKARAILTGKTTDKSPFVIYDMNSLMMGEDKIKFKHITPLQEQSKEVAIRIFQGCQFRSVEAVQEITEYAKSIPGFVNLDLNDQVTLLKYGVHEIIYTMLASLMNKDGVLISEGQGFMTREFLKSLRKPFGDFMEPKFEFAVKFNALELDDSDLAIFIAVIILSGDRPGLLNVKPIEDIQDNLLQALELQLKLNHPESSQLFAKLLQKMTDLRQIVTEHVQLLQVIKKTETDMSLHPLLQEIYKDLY
T1 sequence (P19793 228-462 partner limits assumed): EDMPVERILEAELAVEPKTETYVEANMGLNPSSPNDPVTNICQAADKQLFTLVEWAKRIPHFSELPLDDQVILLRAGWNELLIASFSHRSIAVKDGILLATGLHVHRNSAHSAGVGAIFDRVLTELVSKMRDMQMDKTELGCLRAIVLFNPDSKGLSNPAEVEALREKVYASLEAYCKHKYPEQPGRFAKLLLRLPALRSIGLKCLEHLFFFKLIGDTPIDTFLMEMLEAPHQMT
Method in brief: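 TR-FRET measuring biotinylated MED1 LxxLL peptide association with 2 nM each His-PPARG LBD (Q203-Y477) and Flag-RXRA LBD (E228-T462), E. coli expressed. Read after 3 h incubation; ratios normalized to DMSO (0%) and GW9662 minimum (100%) for IC50 and maximal MED1 repulsion.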

[3] = biological target: T2, PPARG/RXRA LBD heterodimer (Homo sapiens, UniProt P37231); assay: PPARγ-NCOR1 recruitment assay (TR-FRET, biotinylated NCOR1 ID2 peptide); assay type: biochemical; settings: 80 nM Rosiglitazone, 3 hours, read-out: PPARG-NCOR recruitment assay EC50
T2 construct: His-TEV-Q203-Y477; Uniprot ID P37231-2; made in house; host or cells: E. coli
Method in brief: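 2 nM each of E. coli-expressed PPARG LBD (Q203-Y477) and RXRA LBD (WT or S427F, E228-T462) with biotinylated NCOR1 ID2 peptide, incubated 3 h; TR-FRET read at Ex/Em 615/665. Ratios normalized to DMSO (0%) and T0070907 maximum (100%) for EC50 and maximal recruitment.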
T2 sequence (O75376 2251-2273 partner, one chain of several): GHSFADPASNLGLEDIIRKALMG

| EC50 [2] [nM] | EC50 [3] [nM] | SMILES | inhibition at 0.1 µM [1] [%] |
| --- | --- | --- | --- |
| > 10000 | 1000 to 10000 | N#Cc1ccc(Cl)c(-c2cc(=O)c3c(F)c(C(O)CO)c(F)cc3[nH]2)c1 (stereo not drawn) [Example 90, 4-chloro-3-(6-(1,2-dihydroxyethyl)-5,7-difluoro-4-oxo-1,4-dihdroquinolin-2-yl)benzonitrile] | 0 |
| 100 to 1000 | 100 to 1000 | Cc1cc(-c2c(F)cc3[nH]c(-c4cc(C#N)ccc4Cl)cc(=O)c3c2F)cc(C)n1 [Example 43, 4-chloro-3-(6-(2,6-dimethylpyridin-4-yl)-5,7-difluoro-4-oxo-1,4-dihydroquinolin-2-yl)benzonitrile] | 75 |
| 100 to 1000 | 100 to 1000 | N#Cc1ccc(Cl)c(-c2cc(=O)c3c(F)c(-c4ccnc(C(F)F)c4)c(F)cc3[nH]2)c1 [Example 51, 4-chloro-3-(6-(2-(difluoromethyl)pyridin-4-yl)-5,7-difluoro-4-oxo-1,4-dihydroquinolin-2-yl)benzonitrile] | 56 |
| 1000 to 10000 | 1000 to 10000 | CN(C)[C@@H]1CCN(c2c(F)cc3[nH]c(-c4cc(C#N)ccc4Cl)cc(=O)c3c2F)C1 [Example 109, (R)-4-chloro-3-(6-(3-(dimethylamino)pyrrolidin-1-yl)-5,7-difluoro-4-oxo-1,4-dihydroquinolin-2-yl)benzonitrile] | 65 |
| 100 to 1000 | 100 to 1000 | N#Cc1ccc(Cl)c(-c2cc(=O)c3c(F)c(-c4ccnc(C(F)(F)F)c4)c(F)cc3[nH]2)c1 [Example 53, 4-chloro-3-(5,7-difluoro-4-oxo-6-(2-(trifluoromethyl)pyridin-4-yl)-1,4-dihydroquinolin-2-yl)benzonitrile] | 36 |
| 100 to 1000 | 100 to 1000 | N#Cc1ccc(Cl)c(-c2cc(=O)c3c(F)c(-c4cccc(C(=O)O)c4)c(F)cc3[nH]2)c1 [Example 74, 3-(2-(2-chloro-5-cyanophenyl)-5,7-difluoro-4-oxo-1,4-dihydroquinolin-6-yl)benzoic acid] | 12 |
| 1000 to 10000 | 1000 to 10000 | CS(=O)(=O)C1CN(c2c(F)cc3[nH]c(-c4cc(C#N)ccc4Cl)cc(=O)c3c2F)C1 [Example 101, 4-chloro-3-(5,7-difluoro-6-(3-(methylsulfonyl)azetidin-1-yl)-4-oxo-1,4-dihydroquinolin-2-yl)benzonitrile] | 52 |
| 1000 to 10000 | 1000 to 10000 | CN(C)[C@H]1CCN(c2c(F)cc3[nH]c(-c4cc(C#N)ccc4Cl)cc(=O)c3c2F)C1 [Example 108, (S)-4-chloro-3-(6-(3-(dimethylamino)pyrrolidin-1-yl)-5,7-difluoro-4-oxo-1,4-dihydroquinolin-2-yl)benzonitrile] | 65 |
| 100 to 1000 | 100 to 1000 | COc1c(F)cc2[nH]c(-c3cc(C#N)ccc3Cl)cc(=O)c2c1F [Example 34, 4-chloro-3-(5,7-difluoro-6-methoxy-4-oxo-1,4-dihydroquinolin-2-yl)benzonitrile] | 79 |
| 100 to 1000 | 100 to 1000 | CNC(=O)c1ccc(-c2c(F)cc3[nH]c(-c4cc(C#N)ccc4Cl)cc(=O)c3c2F)cc1 [Example 79, 4-(2-(2-chloro-5-cyanophenyl)-5,7-difluoro-4-oxo-1,4-dihydroquinolin-6-yl)-N-methylbenzamide] | 58 |
| 100 to 1000 | 100 to 1000 | N#Cc1ccc(Cl)c(-c2cc(=O)c3c(F)c(-c4ccncc4F)c(F)cc3[nH]2)c1 [Example 49, 4-chloro-3-(5,7-difluoro-6-(3-fluoropyridin-4-yl)-4-oxo-1,4-dihydroquinolin-2-yl)benzonitrile] | 52 |
| 1000 to 10000 | 1000 to 10000 | CN(C)C(=O)C1CCN(c2c(F)cc3[nH]c(-c4cc(C#N)ccc4Cl)cc(=O)c3c2F)CC1 [Example 112, 1-(2-(2-chloro-5-cyanophenyl)-5,7-difluoro-4-oxo-1,4-dihydroquinolin-6-yl)-N,N-dimethylpiperidine-4-carboxamide] | 66 |
| 100 to 1000 | 100 to 1000 | N#Cc1ccc(Cl)c(-c2cc(=O)c3c(F)c(-c4ccc5c(c4)NC(=O)C5)c(F)cc3[nH]2)c1 [Example 56, 4-chloro-3-(5,7-difluoro-4-oxo-6-(2-oxoindolin-6-yl)-1,4-dihydroquinolin-2-yl)benzonitrile] | 26 |
| 1000 to 10000 | 1000 to 10000 | N#Cc1ccc(Cl)c(-c2cc(=O)c3c(F)c(-n4ccnc4)c(F)cc3[nH]2)c1 [Example 29, 4-chloro-3-(5,7-difluoro-6-(1H-imidazol-1-yl)-4-oxo-1,4-dihydroquinolin-2-yl)benzonitrile] | 38 |
| 100 to 1000 | 100 to 1000 | Cc1nc(-c2c(F)cc3[nH]c(-c4cc(C#N)ccc4Cl)cc(=O)c3c2F)c[nH]1 [Example 65, 4-chloro-3-(5,7-difluoro-6-(2-methyl-1H-imidazol-4-yl)-4-oxo-1,4-dihydroquinolin-2-yl)benzonitrile] | 44 |
| 100 to 1000 | 100 to 1000 | CC(C)(CO)n1cc(-c2c(F)cc3[nH]c(-c4cc(C#N)ccc4Cl)cc(=O)c3c2F)cn1 [Example 69, 4-chloro-3-(5,7-difluoro-6-(1-(1-hydroxy-2-methylpropan-2-yl)-1H-pyrazol-4-yl)-4-oxo-1,4-dihydroquinolin-2-yl)benzonitrile] | 68 |
| 100 to 1000 | 100 to 1000 | N#Cc1ccc(Cl)c(-c2cc(=O)c3c(Cl)cc(F)cc3[nH]2)c1 [Example 18, 4-chloro-3-(5-chloro-7-fluoro-4-oxo-1,4-dihydroquinolin-2-yl)benzonitrile] | 83 |
| 1000 to 10000 | 1000 to 10000 | CN1CCN(c2c(F)cc3[nH]c(-c4cc(C#N)ccc4Cl)cc(=O)c3c2F)CC1=O [Example 111, 4-chloro-3-(5,7-difluoro-6-(4-methyl-3-oxopiperazin-1-yl)-4-oxo-1,4-dihydroquinolin-2-yl)benzonitrile] | 43 |
| 1000 to 10000 | 1000 to 10000 | CN(C)C1CN(c2c(F)cc3[nH]c(-c4cc(C#N)ccc4Cl)cc(=O)c3c2F)C1 [Example 100, 4-chloro-3-(6-(3-(dimethylamino)azetidin-1-yl)-5,7-difluoro-4-oxo-1,4-dihydroquinolin-2-yl)benzonitrile] | 87 |
| 100 to 1000 | 100 to 1000 | Cc1cc(-c2c(F)cc3[nH]c(-c4cc(C#N)ccc4Cl)cc(=O)c3c2F)ccn1 [Example 40, 4-chloro-3-(5,7-difluoro-6-(2-methylpyridin-4-yl)-4-oxo-1,4-dihydroquinolin-2-yl)benzonitrile] | 72 |
| 100 to 1000 | 100 to 1000 | N#Cc1ccc(Cl)c(-c2cc(=O)c3c(F)c(-c4ccncc4)c(F)cc3[nH]2)c1 [Example 23, 4-chloro-3-(5,7-difluoro-4-oxo-6-(pyridin-4-yl)-1,4-dihydroquinolin-2-yl)benzonitrile] | 55 |
| 100 to 1000 | 100 to 1000 | CN(C)C(=O)c1cc(-c2c(F)cc3[nH]c(-c4cc(C#N)ccc4Cl)cc(=O)c3c2F)ccc1F [Example 82, 5-(2-(2-chloro-5-cyanophenyl)-5,7-difluoro-4-oxo-1,4-dihydroquinolin-6-yl)-2-fluoro-N,N-dimethylbenzamide] | 70 |
| 100 to 1000 | 100 to 1000 | N#Cc1ccc(Cl)c(-c2cc(=O)c3ccc(Cl)cc3[nH]2)c1 [Example 31, 4-chloro-3-(7-chloro-4-oxo-1,4-dihydroquinolin-2-yl)benzonitrile] | 90 |
| 100 to 1000 | 100 to 1000 | CC(=O)N1CCC(c2c(F)cc3[nH]c(-c4cc(C#N)ccc4Cl)cc(=O)c3c2F)CC1 [Example 95, 3-(6-(1-acetylpiperidin-4-yl)-5,7-difluoro-4-oxo-1,4-dihydroquinolin-2-yl)-4-chlorobenzonitrile] | 87 |
| 1000 to 10000 | > 10000 | CNC(=O)c1c(F)cc2[nH]c(-c3cc(C#N)ccc3Cl)cc(=O)c2c1F [Example 26, 2-(2-chloro-5-cyanophenyl)-5,7-difluoro-N-methyl-4-oxo-1,4-dihydroquinoline-6-carboxamide] | 21 |
